Assay results published in paper PMC7377239, “Cardiovascular Effects of Polychlorinated Biphenyls and Their Major Metabolites” (Environmental Health Perspectives, 2020).
Counter-ions that a name gives are not always drawn. Like-named read-outs stand apart in the source and are kept apart here.

Legend:
HUVECs = assay: High-content imaging cytotoxicity in HUVECs, 24 h; type: cell-based, human; conditions: Homo sapiens, HUVEC, 24 h, HUVECs; for viability at 0.01 µM / activity at 0.01 µM / viability at 0.1 µM / activity at 0.1 µM / viability at 1 µM / activity at 1 µM / viability at 10 µM / activity at 10 µM / viability at 100 µM / activity at 100 µM: 0.00 µM = 100.00; for viability at 0.1 µM / activity at 0.1 µM: 0.10 µM; for minimal effective concentration: top concentration 100.00 µM
In short: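 HUVECs (passages 1–5) grown to monolayer over 3–5 d, then exposed 24 h at 37°C, 5% CO2; stained with Hoechst 33342, MitoTracker Orange and calcein AM and imaged at 10×. Readouts normalized to 0.5% DMSO vehicle, four-parameter logistic fit; POD at one-SD cutoff, 100μM assigned when no response.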

[1] = test system: iCell cardiomyocytes (human iPSC-derived cardiomyocytes); assay: High-content imaging of cytotoxicity and mitochondrial integrity in iPSC-CMs; type: cell-based; conditions: Homo sapiens; for viability at 0.01 µM / activity at 0.01 µM / viability at 0.1 µM / activity at 0.1 µM / viability at 1 µM / activity at 1 µM / viability at 10 µM / activity at 10 µM / viability at 100 µM / activity at 100 µM: Cardiomyocyte, 0.00 µM = 100.00; for viability at 0.1 µM / activity at 0.1 µM: 0.10 µM; for minimal effective concentration: iPSC-CM
In short: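 Readouts from high-content images were normalized to vehicle controls containing 0.5% vol/vol DMSO. They were fit to a four-parameter logistic model in R. Points of departure were set using a cutoff of one standard deviation across vehicle control means. Where no concentration–response was seen, the top tested concentration of 100μM was assigned as the no observable adverse effect level.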

[2] = 24 hr, read-out: huvec.cyto.24hr
[3] = 24 hr, read-out: huvec.mito.24hr
[4] = 24 hr, read-out: huvec.mitoint.24hr
[5] = 24 hr, read-out: huvec.nma.24hr
[6] = 24 hrs, read-out: huvec.tc.24hrs

`O=S(=O)(O)Oc1ccc(-c2ccc(Cl)cc2)cc1` [4'-yl PCB 3 sulfate] gave a viability at 0.01 µM (HUVECs; [2]) of 98.5%, an activity at 0.01 µM (HUVECs; [3]) of 97.5% and an activity at 0.01 µM (HUVECs; [4]) of 90.2%. It also gave an activity at 0.01 µM (HUVECs; [5]) of 99%, a viability at 0.1 µM (HUVECs; [2]) of 90.8% and an activity at 0.1 µM (HUVECs; [3]) of 89.7%. For the same molecule, the activity at 0.1 µM (HUVECs; [4]) was 109%, the activity at 0.1 µM (HUVECs; [5]) was 102% and the viability at 1 µM (HUVECs; [2]) was 87.4%. For the same molecule, the activity at 1 µM (HUVECs; [3]) was 86.3%, the activity at 1 µM (HUVECs; [4]) was 97.9% and the activity at 1 µM (HUVECs; [5]) was 100%. The viability at 10 µM (HUVECs; [2]) was 103%, the activity at 10 µM (HUVECs; [3]) was 103% and the activity at 10 µM (HUVECs; [4]) was 83.8%. For the same molecule, the activity at 10 µM (HUVECs; [5]) was 97.1%, the viability at 100 µM (HUVECs; [2]) was 88.9% and the activity at 100 µM (HUVECs; [3]) was 87.6%. For the same molecule, the activity at 100 µM (HUVECs; [4]) was 114%, the activity at 100 µM (HUVECs; [5]) was 97.7% and the minimal effective concentration (HUVECs; 24 hr, read-out: huvec.cyto.24hr POD) was 100 µM. For the same molecule, the minimal effective concentration (HUVECs; 24 hr, read-out: huvec.mito.24hr POD) was 100 µM, the minimal effective concentration (HUVECs; 24 hr, read-out: huvec.mitoint.24hr POD) was 100 µM and the minimal effective concentration (HUVECs; 24 hr, read-out: huvec.nma.24hr POD) was 100 µM. The viability at 0.01 µM (HUVECs; [6]) was 98.5%, the viability at 0.1 µM (HUVECs; [6]) was 90.8% and the viability at 1 µM (HUVECs; [6]) was 87.4%. The viability at 10 µM (HUVECs; [6]) was 103%, the viability at 100 µM (HUVECs; [6]) was 88.9% and the minimal effective concentration (HUVECs; 24 hrs, read-out: huvec.tc.24hrs POD) was 100 µM. It also gave a viability at 0.01 µM ([1]; 1.5 h, read-out: cm.cam.90min) of 90.6%, an activity at 0.01 µM ([1]; 1.5 h, read-out: cm.mii.90min) of 111% and an activity at 0.01 µM ([1]; 1.5 h, read-out: cm.mito.90min) of 90.4%. For the same molecule, the viability at 0.01 µM ([1]; 1.5 h, read-out: cm.tc.90min) was 90.5%, the viability at 0.1 µM ([1]; 1.5 h, read-out: cm.cam.90min) was 97.2% and the activity at 0.1 µM ([1]; 1.5 h, read-out: cm.mii.90min) was 109%. For the same molecule, the activity at 0.1 µM ([1]; 1.5 h, read-out: cm.mito.90min) was 97.2%, the viability at 0.1 µM ([1]; 1.5 h, read-out: cm.tc.90min) was 97.5% and the viability at 1 µM ([1]; 1.5 h, read-out: cm.cam.90min) was 101%. For the same molecule, the activity at 1 µM ([1]; 1.5 h, read-out: cm.mii.90min) was 109%, the activity at 1 µM ([1]; 1.5 h, read-out: cm.mito.90min) was 101% and the viability at 1 µM ([1]; 1.5 h, read-out: cm.tc.90min) was 102%. It also gave a viability at 10 µM ([1]; 1.5 h, read-out: cm.cam.90min) of 102%, an activity at 10 µM ([1]; 1.5 h, read-out: cm.mii.90min) of 107% and an activity at 10 µM ([1]; 1.5 h, read-out: cm.mito.90min) of 102%. It also gave a viability at 10 µM ([1]; 1.5 h, read-out: cm.tc.90min) of 102%, a viability at 100 µM ([1]; 1.5 h, read-out: cm.cam.90min) of 96.5% and an activity at 100 µM ([1]; 1.5 h, read-out: cm.mii.90min) of 113%. The activity at 100 µM ([1]; 1.5 h, read-out: cm.mito.90min) was 96.7%, the viability at 100 µM ([1]; 1.5 h, read-out: cm.tc.90min) was 96.7% and the viability at 0.01 µM ([1]; 24 h, read-out: cm.cam.24hrs) was 97.3%. It also gave an activity at 0.01 µM ([1]; 24 h, read-out: cm.mii.24hrs) of 98.4%, an activity at 0.01 µM ([1]; 24 h, read-out: cm.mito.24hrs) of 95.5% and a viability at 0.01 µM ([1]; 24 h, read-out: cm.tc.24hrs) of 97.4%. The viability at 0.1 µM ([1]; 24 h, read-out: cm.cam.24hrs) was 105%, the activity at 0.1 µM ([1]; 24 h, read-out: cm.mii.24hrs) was 111% and the activity at 0.1 µM ([1]; 24 h, read-out: cm.mito.24hrs) was 106%. It also gave a viability at 0.1 µM ([1]; 24 h, read-out: cm.tc.24hrs) of 106%, a viability at 1 µM ([1]; 24 h, read-out: cm.cam.24hrs) of 107% and an activity at 1 µM ([1]; 24 h, read-out: cm.mii.24hrs) of 98.9%. For the same molecule, the activity at 1 µM ([1]; 24 h, read-out: cm.mito.24hrs) was 108%, the viability at 1 µM ([1]; 24 h, read-out: cm.tc.24hrs) was 107% and the viability at 10 µM ([1]; 24 h, read-out: cm.cam.24hrs) was 102%. For the same molecule, the activity at 10 µM ([1]; 24 h, read-out: cm.mii.24hrs) was 92%, the activity at 10 µM ([1]; 24 h, read-out: cm.mito.24hrs) was 101% and the viability at 10 µM ([1]; 24 h, read-out: cm.tc.24hrs) was 102%. For the same molecule, the viability at 100 µM ([1]; 24 h, read-out: cm.cam.24hrs) was 104%, the activity at 100 µM ([1]; 24 h, read-out: cm.mii.24hrs) was 82.3% and the activity at 100 µM ([1]; 24 h, read-out: cm.mito.24hrs) was 103%. The viability at 100 µM ([1]; 24 h, read-out: cm.tc.24hrs) was 105%, the minimal effective concentration ([1]; 1.5 h, read-out: cm.cam.90min POD) was 100 µM and the minimal effective concentration ([1]; 1.5 h, read-out: cm.mii.90min POD) was 100 µM. The minimal effective concentration ([1]; 1.5 h, read-out: cm.mito.90min POD) was 100 µM, the minimal effective concentration ([1]; 1.5 h, read-out: cm.tc.90min POD) was 100 µM and the minimal effective concentration ([1]; 24 h, read-out: cm.cam.24hrs POD) was 100 µM. It also gave a minimal effective concentration ([1]; 24 h, read-out: cm.mii.24hrs POD) of 53.5 µM, a minimal effective concentration ([1]; 24 h, read-out: cm.mito.24hrs POD) of 100 µM and a minimal effective concentration ([1]; 24 h, read-out: cm.tc.24hrs POD) of 100 µM.
